Source: US4755525A, “2-(fluoroalkyl)-benzimidazoles as inhibitors of 5-lipoxygenase” (Beecham Group p.l.c., priority 1985, dated 1988)
Counter-ions that a name gives are not always drawn.

Assays:
[1] = tested on: carrageenin-induced pleurisy; experiment: Carrageenin-induced pleurisy in the rat; format: in vivo; settings: dose of 25 mg/kg p.o., given 1 hour before and 24 and 48 hours after carrageenin
Method: CARRAGEENIN-INDUCED PLEURISY IN THE RAT
This model of monocyte accumulation is based on the method of R. Vinegar, J. F. Truax, J. L. Selph and F. A. Voelker [Federation Proceeding 41, 2588-2595, 1982].
0.2 ml of a 2.0% solution of λ-carrageenin (Viscarin 402) in saline was injected intrapleurally in anaesthetised rats (wt. approx. 175-200 g). Compounds were administered 1 hour before carrageenin and at 24 and 48 hours after carrageenin. 72 hours after carrageenin injection, 4.0 ml of EDTA solution (5 g EDTA in 100 ml of 0.9% saline and 325 mg phenol red added together with saline to 1 liter) was injected intrapleurally after killing the animals, and the exudate removed with a syringe through the diaphragm. Exudate volume was measured spectrophotometrically (560 nm) and cellular content estimated with a DNA assay [Karsten U. and Wollenberger A. Anal. Biochem. 77, 464-470, 1977].
This test is used to indicate anti-inflammatory activity against carrageenin-induced pleurisy in the rat. The compound of Example 1 was active at a dose of 25 mg/kg (p.o.).

[2] = target: T1, 5-Lipoxygenase enzyme from RBL-1 cells (Rattus norvegicus, UniProt P12527); experiment: RBL-1 5-lipoxygenase screen (cell free); format: biochemical; settings: read-out: percentage inhibition of 5-lipoxygenase
T1 construct: prepared as a 10,000 g supernatant from RBL-1 cells; endogenous in cells; host or cells: RBL-1 cells (10,000 g supernatant)
T1 sequence (P12527 1-673): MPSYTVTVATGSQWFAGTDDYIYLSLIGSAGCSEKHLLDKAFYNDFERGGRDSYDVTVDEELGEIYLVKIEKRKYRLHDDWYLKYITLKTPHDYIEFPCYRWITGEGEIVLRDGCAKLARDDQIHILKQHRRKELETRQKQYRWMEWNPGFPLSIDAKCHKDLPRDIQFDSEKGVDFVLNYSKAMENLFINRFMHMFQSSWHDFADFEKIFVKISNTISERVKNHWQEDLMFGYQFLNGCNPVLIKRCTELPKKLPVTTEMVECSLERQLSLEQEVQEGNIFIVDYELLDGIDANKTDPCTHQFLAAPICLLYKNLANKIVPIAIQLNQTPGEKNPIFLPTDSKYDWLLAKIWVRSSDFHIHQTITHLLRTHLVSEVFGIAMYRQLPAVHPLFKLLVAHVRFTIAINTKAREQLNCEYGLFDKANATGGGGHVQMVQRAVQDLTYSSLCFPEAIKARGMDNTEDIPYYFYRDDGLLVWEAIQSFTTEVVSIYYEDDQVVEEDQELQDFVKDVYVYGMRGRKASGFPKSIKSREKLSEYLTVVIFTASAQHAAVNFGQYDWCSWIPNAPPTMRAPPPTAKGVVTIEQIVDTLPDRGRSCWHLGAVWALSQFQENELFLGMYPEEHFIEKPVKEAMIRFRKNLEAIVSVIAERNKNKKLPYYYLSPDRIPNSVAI
Method: RBL-1 5-LIPOXYGENASE SCREEN
5-Lipoxygenase enzyme was prepared as a 10,000 g supernatant from RBL-1 cells by the method of Jakschik [Jakschik, B. A., F. F. Sun, L. M. Lee, and M. M. Steinhoff, 1980, Biochem. Biophys. Res. Comm. 95, 103]. The 10,000 g supernatant was diluted with homogenization buffer to the equivalent of 1.5-2.5×10^7 cells. ml^-1 and made 2 mM with respect to CaCl2. Aliquots of 0.5 ml were then dispensed into tubes, and incubated at 29° C. with 5 μl ethanol or compound in ethanol at the desired concentration for 2 min. Then […] arachidonic acid was added in buffer to give a final concentration of 6.3 μM and 0.2 μCi per incubation, and the reaction continued at 29° C. for 2 min. The reaction was terminated by adding 1 ml of acetone and cooling on ice, 0.5 ml of ice-cold saline and 10 μl of 2N formic acid were added, and the mixture was extracted with 2×2 ml of chloroform. The extract was stored under N2 at -20° C. until analysis by chromatography. Activity was measured as the percentage of total radioactivity found in 5-HETE and 5,12-diHETE, and inhibition calculated as the decrease in formation of the sum of these two species in compound-treated incubates relative to control incubates.
This test is used to show inhibition of the 5-lipoxygenase enzyme in a mammalian RBL-1 cell free 5-lipoxygenase assay.

inhibition at 1 µM ([2]; 1 μM concentration) [%]	inhibition at 20 µM ([2]; 20 μM concentration) [%]	SMILES	anti-inflammatory activity against carrageenin-induced pleurisy in the rat [1]
93	–	Cc1cc(C(C)(C)C)c(O)c2[nH]c(C(F)(F)F)nc12 [Example 1, 5-tert-Butyl-4-hydroxy-7-methyl-2-trifluoro-methylbenzimidazole]	active
–	68	Cc1ccc(O)c2[nH]c(C(F)(F)F)nc12 [Example 2, 4-Hydroxy-7methyl-2-trifluoromethylbenzimidazole hydrochloride hydrate (4:4:1)]	–
